# Measured values: patent US20120239140A1, “MEDICAL PRODUCT COMPRISING AN ACTIVE COATING” (priority 2011, published 2012)
# Entries after “also recorded” stand apart in the source; their conditions may differ.
# Tests used:
# [1] = cited from earlier work
# [2] = cited from earlier work; remark: listed apart in the source
# [3] = tested on: pathologically altered human aortas; assay: Ex vivo test on the aorta model (stent implanted in the explant, 2 weeks culture, PCR); format: cell-based
# Excerpt: The ex vivo test on pathologically altered human arteries and, in particular, on human aortas is a novel test model that makes it possible to better predict the clinical efficacy of biologically active coatings of medical implants such as stents or balloon catheters. Until now, it was not possible to perform this prediction in a reliable manner. […] These failures have engendered doubt in the benefit of the standard animal models, since, despite additional serial examinations and comprehensive screenings, the clinical efficacy of a new substance is uncertain even though preclinical results were positive. Until now there was no test model available that investigated the antiproliferative effect of new drugs in the complex biological environment of an arteriosclerotic vessel. On the basis of this novel test model, it is now possible to obtain mechanistic insights into the origin of a restenosis after stent implantation and to develop a therapy specific for the cause thereof
# The special test procedure is based on the use of human pathological vascular tissue obtained directly within one hour after operation (vasectomy). Immediately after removal, the vascular preparations are placed in a sterile phosphate buffer (PBS) at room temperature, and are transported. […]
Compound,antirestenotic effect / reduction of restenosis in clinical practice [1],efficacy in the experimental animal model [2],"proliferation of smooth muscle cells (proliferation markers KI-67 and PCNA) ([3]; Pyr3 eluted from polymeric stent coating (embodiment 1) compared with uncoated 316L stent, after stent implantation with overexpansion, FIGS. 2 and 3)","total number of smooth muscle cells (expression of hSMTN and hAlpha-actin) ([3]; stent with Pyr3 (embodiment 1) compared with uncoated 316L stent, after stent implantation, FIG. 2)"
CC(=O)Oc1ccccc1C(=O)O [aspirin],did not reduce restenosis,good efficacy,,
CC[C@@H]1/C=C(\C)C[C@H](C)C[C@H](OC)[C@H]2O[C@@](O)(C(=O)C(=O)N3CCCC[C@H]3C(=O)O[C@H](/C(C)=C/[C@@H]3CC[C@H](Cl)[C@H](OC)C3)[C@H](C)[C@@H](O)CC1=O)[C@H](C)C[C@@H]2OC [pimecrolimus],did not reduce restenosis,good efficacy,,
"CCOC(=O)c1cnn(-c2ccc(NC(=O)C(Cl)=C(Cl)Cl)cc2)c1C(F)(F)F [Pyr3, ethyl-1-(4-(2,3,3-trichloroacrylamide)phenyl)-5-(trifluoromethyl)-1H-pyrazole-4-carboxylate]",,,can be inhibited; also recorded: lower overall proliferation,does not lead to the otherwise common drop in total number of smooth muscle cells
heparin,did not reduce restenosis,good efficacy,,
